# Experimental data: patent US11702402B2, “Small molecules that block proteasome-associated ubiquitin receptor RPN13 function and uses thereof” (DANA-FARBER CANCER INSTITUTE, INC., priority 2018, dated 2023)
# Experiments:
# [1] = biological target: RPN13 (Homo sapiens, UniProt Q16186); test: Rpn13 immunoblot in RPMI-8226 cells; type: cell-based; design: endogenous in cells; host or cells: MM.1S; MM.1S-CRBN KO; RPMI-8226; ANBL6.BR; settings: RPMI-8226 (p53-mutated); 400 nM; 16 hours
# Method: (§1) MM.1S cells, which were treated with DMSO control, bortezomib, or WL40 at indicated concentration for 3 hours; protein lysates were analyzed for different proteasome activities (CT-L, chymotrypsin-like; T-L, trypsin-like; C-L, caspase-like). FIG. 20B is a bar graph showing percent proteasome activity after normalization with DMSO control (mean±SD; n=3). Recombinant 20S proteasome was incubated with DMSO, bortezomib, or WL40 for 30 minutes, followed by assessment of the above-noted proteasome activities. FIG. 20C MM.1S cells were pretreated with exemplary proteasome inhibitor MG132 (10 μM) for 1 hour, followed by addition of WL40 (400 nM) for 8 hours. […] Total protein lysates were subjected to immunoblots for Rpn13 and α-tubulin. […] FIG. 20E ANBL6.BR cells were treated with WL40 (400 nM) or RA190 (500 nM) for 16 hours; protein lysates were subjected to immunoblot analysis using anti-Rpn13 or anti-β-actin Abs.
# Cellular protein extracts were prepared using RIPA lysis buffer (50 mM Tris-HCl, 150 mM NaCl, 1% NP-40, 0.5% sodium deoxycholate, and 0.1% SDS). […]
# Next, the effect of WL40 on additional MM cell lines, including p53-mutated RPMI-8226 cells or bortezomib-resistant ANBL6.BR cells, was evaluated. […]
# [2] = biological target: Recombinant 20S proteasome (Homo sapiens, UniProt P28072+P28074+Q99436); test: Recombinant 20S proteasome activity assay; type: biochemical; settings: purified recombinant 20S proteasome; 30 minutes
# Method: as §1
# To eliminate the potential impact of WL40 on proteasome function, the effect of WL40 on proteasome activities was assessed.
# Sequence of RPN13 (Q16186 whole entry): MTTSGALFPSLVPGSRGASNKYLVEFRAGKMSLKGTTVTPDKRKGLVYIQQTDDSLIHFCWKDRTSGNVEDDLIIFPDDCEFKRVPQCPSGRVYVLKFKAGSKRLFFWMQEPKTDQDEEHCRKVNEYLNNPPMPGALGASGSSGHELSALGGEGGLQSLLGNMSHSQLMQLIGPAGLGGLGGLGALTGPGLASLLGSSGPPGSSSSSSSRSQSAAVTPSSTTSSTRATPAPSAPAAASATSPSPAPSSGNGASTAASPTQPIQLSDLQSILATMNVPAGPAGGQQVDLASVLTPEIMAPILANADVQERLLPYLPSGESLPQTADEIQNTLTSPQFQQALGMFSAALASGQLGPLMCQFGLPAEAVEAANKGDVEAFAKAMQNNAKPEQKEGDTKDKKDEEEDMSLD
smiles,measurement,setting,value
O=C1CCC(N2C(=O)c3cccc(NCCOCCOCCOCCC(=O)N[C@@H](Cc4ccccc4)C(=O)N4C/C(=C\c5ccc(Cl)c(Cl)c5)C(=O)/C(=C/c5ccc(Cl)c(Cl)c5)C4)c3C2=O)C(=O)N1 (some centres unmarked) [WL40],Rpn13 levels (immunoblot),[1],induced RPN13 degradation
same,"20S proteasomal activities (chymotrypsin-like, trypsin-like, caspase-like)",[2],does not inhibit 20S proteasomal activities
